This note sets out measurements from patent US12404241B2 (Celgene Corporation, priority 2018, dated 2025).

Broadly, the DC50 is the concentration at which degradation of the target reaches its halfway point.

Each structure is given as a SMILES string. Some results are limits rather than exact numbers.

The assay deals with T1, AR (Homo sapiens, UniProt P10275).
T1 construct: endogenous in cells; host or cells: VCaP cells
T1 sequence (P10275 1-920): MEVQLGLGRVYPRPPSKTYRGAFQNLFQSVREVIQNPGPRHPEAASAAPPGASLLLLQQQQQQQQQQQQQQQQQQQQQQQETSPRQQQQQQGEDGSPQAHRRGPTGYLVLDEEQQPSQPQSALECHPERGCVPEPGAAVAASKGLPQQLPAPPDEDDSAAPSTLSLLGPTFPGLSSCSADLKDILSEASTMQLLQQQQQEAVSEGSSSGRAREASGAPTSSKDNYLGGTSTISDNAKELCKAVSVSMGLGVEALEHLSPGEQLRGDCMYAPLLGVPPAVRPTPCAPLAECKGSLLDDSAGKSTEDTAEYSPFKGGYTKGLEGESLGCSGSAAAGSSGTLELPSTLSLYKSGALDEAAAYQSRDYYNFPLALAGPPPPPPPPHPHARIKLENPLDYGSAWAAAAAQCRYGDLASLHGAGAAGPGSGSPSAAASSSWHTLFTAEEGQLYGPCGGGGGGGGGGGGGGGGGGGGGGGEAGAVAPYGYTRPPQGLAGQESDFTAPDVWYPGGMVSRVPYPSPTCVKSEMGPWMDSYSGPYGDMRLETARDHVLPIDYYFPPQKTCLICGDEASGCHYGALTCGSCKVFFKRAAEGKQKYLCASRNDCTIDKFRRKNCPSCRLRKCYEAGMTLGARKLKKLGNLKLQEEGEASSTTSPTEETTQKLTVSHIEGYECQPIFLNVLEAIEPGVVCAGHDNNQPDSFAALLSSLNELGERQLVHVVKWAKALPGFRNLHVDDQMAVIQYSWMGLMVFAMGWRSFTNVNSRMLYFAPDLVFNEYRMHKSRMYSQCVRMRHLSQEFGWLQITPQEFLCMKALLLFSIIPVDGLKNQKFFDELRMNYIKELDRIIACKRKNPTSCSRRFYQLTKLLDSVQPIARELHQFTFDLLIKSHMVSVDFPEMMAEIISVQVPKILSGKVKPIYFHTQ
Briefly: VCAP AR Degradation Assay. The class given is cell-based. Conditions: for Y (AR degradation efficiency, % of DMSO control): class symbols *; for DC50: class symbols A-C, read-out: DC50. The procedure, abridged:
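VCaP cells treated 24 h at 37 °C with a 10-point 1:3 series (top 5 μM final; 0.1% DMSO control). Lysate AR measured by sandwich ELISA, normalized to DMSO as percent of control; DC50, EC50 and lowest AR level (Y) from four-parameter logistic fit.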

In the case of `C[C@@H]1CN(CCOc2ncc(N3C(=S)N(c4ccc(C#N)c(C(F)(F)F)c4)C(=O)C3(C)C)cc2C2CC2)C[C@H](C)N1CC(=O)Nc1cccc(NC2CCC(=O)NC2=O)c1` (stereo partly drawn) [Example 228, 2-((2S,6R)-4-(2-(5-(3-(4-cyano-3-(trifluoromethyl)phenyl)-5,5-dimethyl-4-oxo-2-thioxoimidazolidin-1-yl)-3-cyclopropylpyridin-2-yloxy)ethyl)-2,6-dimethylpiperazin-1-yl)-N-(3-(2,6-dioxopiperidin-3-ylamino)phenyl)acetamide], the “Y (AR degradation efficiency, % of DMSO control)” value is recorded as “* (0<Y<=25%)” and the DC50 was < 0.1 µM.
Take `C[C@@H]1CN(CCOc2ncc(N3C(=S)N(c4ccc(C#N)c(C(F)(F)F)c4)C(=O)C34CCC4)cc2C2CC2)C[C@H](C)N1CC(=O)Nc1cccc(NC2CCC(=O)NC2=O)c1` (stereo partly drawn) [Example 229, 2-((2S,6R)-4-(2-(5-(7-(4-cyano-3-(trifluoromethyl)phenyl)-8-oxo-6-thioxo-5,7-diazaspiro[3.4]octan-5-yl)-3-cyclopropylpyridin-2-yloxy)ethyl)-2,6-dimethylpiperazin-1-yl)-N-(3-(2,6-dioxopiperidin-3-ylamino)phenyl)acetamide]: the “Y (AR degradation efficiency, % of DMSO control)” value is recorded as “* (0<Y<=25%)” and the DC50 was < 0.1 µM.
Regarding `CC(C)c1cc(N2C(=S)N(c3ccc(C#N)c(C(F)(F)F)c3)C(=O)C2(C)C)cnc1OCCN1C[C@@H](C)N(CC(=O)Nc2cccc(NC3CCC(=O)NC3=O)c2)C[C@H]1C` (stereo partly drawn) [Example 230, 2-((2R,5R)-4-(2-(5-(3-(4-cyano-3-(trifluoromethyl)phenyl)-5,5-dimethyl-4-oxo-2-thioxoimidazolidin-1-yl)-3-isopropylpyridin-2-yloxy)ethyl)-2,5-dimethylpiperazin-1-yl)-N-(3-(2,6-dioxopiperidin-3-ylamino)phenyl)acetamide], the “Y (AR degradation efficiency, % of DMSO control)” value was “*** (35%<Y<50%)” and the DC50 fell in the range of 0.5 to 1 µM.
As for `CC(C)c1cc(N2C(=S)N(c3ccc(C#N)c(C(F)(F)F)c3)C(=O)C23CCC3)cnc1OCCN1C[C@@H](C)N(CC(=O)Nc2cc(C#N)cc(NC3CCC(=O)NC3=O)c2)C[C@H]1C` (stereo partly drawn) [Example 231, 2-((2R,5R)-4-(2-(5-(7-(4-cyano-3-(trifluoromethyl)phenyl)-8-oxo-6-thioxo-5,7-diazaspiro[3.4]octan-5-yl)-3-isopropylpyridin-2-yloxy)ethyl)-2,5-dimethylpiperazin-1-yl)-N-(3-cyano-5-(2,6-dioxopiperidin-3-ylamino)phenyl)acetamide], the “Y (AR degradation efficiency, % of DMSO control)” value is recorded as “* (0<Y<=25%)” and the DC50 is 0.1 to 0.5 µM.
For `CC(C)c1cc(N2C(=S)N(c3ccc(C#N)c(C(F)(F)F)c3)C(=O)C2(C)C)cnc1OCCN1C[C@@H](C)N(CC(=O)Nc2cc(C#N)cc(NC3CCC(=O)NC3=O)c2)C[C@H]1C` (stereo partly drawn) [Example 232, 2-((2R,5R)-4-(2-(5-(3-(4-cyano-3-(trifluoromethyl)phenyl)-5,5-dimethyl-4-oxo-2-thioxoimidazolidin-1-yl)-3-isopropylpyridin-2-yloxy)ethyl)-2,5-dimethylpiperazin-1-yl)-N-(3-cyano-5-(2,6-dioxopiperidin-3-ylamino)phenyl)acetamide] the same measures were “* (0<Y<=25%)” and 0.1 to 0.5 µM.
The matching figures for `CC1(C)C(=O)N(c2cnc(C#N)c(C(F)(F)F)c2)C(=S)N1c1ccc(OCCN2CCN(CC(=O)Nc3cccc(NC4CCC(=O)NC4=O)c3)[C@H](C(F)(F)F)C2)c(C2CC2)c1` (stereo partly drawn) [Example 233, 2-((S)-4-(2-(4-(3-(6-cyano-5-(trifluoromethyl)pyridin-3-yl)-5,5-dimethyl-4-oxo-2-thioxoimidazolidin-1-yl)-2-cyclopropylphenoxy)ethyl)-2-(trifluoromethyl)piperazin-1-yl)-N-(3-(2,6-dioxopiperidin-3-ylamino)phenyl)acetamide]: “* (0<Y<=25%)” and < 0.1 µM.
For `C[C@@H]1CN(CC(=O)Nc2cccc(NC3CCC(=O)NC3=O)c2)[C@H](C)CN1CCOc1ccc(N2C(=S)N(c3cnc(C#N)c(C(F)(F)F)c3)C(=O)C2(C)C)cc1C1CC1` (stereo partly drawn) [Example 234, 2-((2R,5R)-4-(2-(4-(3-(6-cyano-5-(trifluoromethyl)pyridin-3-yl)-5,5-dimethyl-4-oxo-2-thioxoimidazolidin-1-yl)-2-cyclopropylphenoxy)ethyl)-2,5-dimethylpiperazin-1-yl)-N-(3-(2,6-dioxopiperidin-3-ylamino)phenyl)acetamide] the same measures were “* (0<Y<=25%)” and < 0.1 µM.
For the compound `C[C@@H]1CN(CCOc2ccc(N3C(=S)N(c4cnc(C#N)c(C(F)(F)F)c4)C(=O)C3(C)C)cc2C2CC2)C[C@H](C)N1CC(=O)Nc1cccc(NC2CCC(=O)NC2=O)c1` (stereo partly drawn) [Example 235, 2-((2S,6R)-4-(2-(4-(3-(6-cyano-5-(trifluoromethyl)pyridin-3-yl)-5,5-dimethyl-4-oxo-2-thioxoimidazolidin-1-yl)-2-cyclopropylphenoxy)ethyl)-2,6-dimethylpiperazin-1-yl)-N-(3-(2,6-dioxopiperidin-3-ylamino)phenyl)acetamide], the “Y (AR degradation efficiency, % of DMSO control)” value was “* (0<Y<=25%)” and the DC50 was < 0.1 µM.
For `CC1(C)C(=O)N(c2ccc(C#N)c(C(F)(F)F)c2)C(=S)N1c1ccc(OCCN2CC3CCC(C2)N3CC(=O)Nc2cccc(NC3CCC(=O)NC3=O)c2)c(C2CC2)c1` (stereo not shown) [Example 238, 2-(3-(2-(4-(3-(4-cyano-3-(trifluoromethyl)phenyl)-5,5-dimethyl-4-oxo-2-thioxoimidazolidin-1-yl)-2-cyclopropylphenoxy)ethyl)-3,8-diazabicyclo[3.2.1]octan-8-yl)-N-(3-(2,6-dioxopiperidin-3-ylamino)phenyl)acetamide] the same measures were “* (0<Y<=25%)” and 0.5 to 1 µM.
`C[C@@H]1CN(CC(=O)Nc2cc(C#N)cc(NC3CCC(=O)NC3=O)c2)[C@H](C)CN1CCOc1ccc(N2C(=S)N(c3cnc(C#N)c(C(F)(F)F)c3)C(=O)C2(C)C)cc1C(C)(F)F` (stereo partly drawn) [Example 243, N-(3-cyano-5-(2,6-dioxopiperidin-3-ylamino)phenyl)-2-((2R,5R)-4-(2-(4-(3-(6-cyano-5-(trifluoromethyl)pyridin-3-yl)-5,5-dimethyl-4-oxo-2-thioxoimidazolidin-1-yl)-2-(1,1-difluoroethyl)phenoxy)ethyl)-2,5-dimethylpiperazin-1-yl)acetamide]: the “Y (AR degradation efficiency, % of DMSO control)” value is on record as “* (0<Y<=25%)” and the DC50 was < 0.1 µM.
The matching figures for `C[C@@H]1CN(CC(=O)Nc2cccc(NC3CCC(=O)NC3=O)c2)[C@H](C)CN1CCOc1ccc(N2C(=S)N(c3cnc(C#N)c(C(F)(F)F)c3)C(=O)C2(C)C)cc1C(C)(F)F` (stereo partly drawn) [Example 244, 2-((2R,5R)-4-(2-(4-(3-(6-cyano-5-(trifluoromethyl)pyridin-3-yl)-5,5-dimethyl-4-oxo-2-thioxoimidazolidin-1-yl)-2-(1,1-difluoroethyl)phenoxy)ethyl)-2,5-dimethylpiperazin-1-yl)-N-(3-(2,6-dioxopiperidin-3-ylamino)phenyl)acetamide]: “* (0<Y<=25%)” and < 0.1 µM.
